Measurements published in the supplement of paper PMC11061612.

Legend:
Carboplatin = compound: C1CC(C1)(C(=O)[O-])C(=O)[O-].N.N.[Pt+2] [Carboplatin]; conditions: max 10 µM
Procedure, shortened: (§1)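 Cancer cell lines were dosed for 72 hours (final DMSO typically 0.2%) after 24 hours at 37°C and 5% CO2 in 1536-well plates containing 7.5 μl DMEM/F12 or RPMI with 10% FBS. Viability came from CellTiter-Glo 2.0 luminescence, scaled between blank-well and DMSO-well means, and dose responses were fitted to a two-parameter logistic curve with a non-linear mixed effects model. The single-agent IC50 was obtained from this fit.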

AZD5363 = compound: C1CN(CCC1(C(=O)N[C@@H](CCO)C2=CC=C(C=C2)Cl)N)C3=NC=NC4=C3C=CN4 [AZD5363]; conditions: max 10 µM
Procedure, shortened: as §1

AZD1775 = compound: C=CCn1c(=O)c2cnc(Nc3ccc(N4CCN(C)CC4)cc3)nc2n1-c1cccc(C(C)(C)O)n1 [AZD1775]; conditions: max 3 µM
Procedure, shortened: as §1

Trametinib = compound: CC(=O)Nc1cccc(-n2c(=O)n(C3CC3)c(=O)c3c(Nc4ccc(I)cc4F)n(C)c(=O)c(C)c32)c1 [Trametinib]; conditions: max 1 µM
Procedure, shortened: as §1

Paclitaxel = compound: CC(=O)O[C@H]1C(=O)[C@@]2(C)[C@H]([C@H](OC(=O)c3ccccc3)[C@]3(O)C[C@H](OC(=O)[C@H](O)[C@@H](NC(=O)c4ccccc4)c4ccccc4)C(C)=C1C3(C)C)[C@]1(OC(C)=O)CO[C@@H]1C[C@@H]2O [Paclitaxel]; conditions: max 3 µM
Procedure, shortened: as §1

Palbociclib = compound: CC(=O)c1c(C)c2cnc(Nc3ccc(N4CCNCC4)cn3)nc2n(C2CCCC2)c1=O [Palbociclib]; conditions: max 10 µM
Procedure, shortened: as §1

AZD1390 = compound: CC(C)n1c(=O)n(C)c2cnc3cc(F)c(-c4ccc(OCCCN5CCCCC5)nc4)cc3c21 [AZD1390]; conditions: max 0.3 µM
Procedure, shortened: as §1

Venetoclax = compound: CC1(C)CCC(CN2CCN(c3ccc(C(=O)NS(=O)(=O)c4ccc(NCC5CCOCC5)c([N+](=O)[O-])c4)c(Oc4cnc5[nH]ccc5c4)c3)CC2)=C(c2ccc(Cl)cc2)C1 [Venetoclax]; conditions: max 1 µM
Procedure, shortened: as §1

Dasatinib = compound: CC1=C(C(=CC=C1)Cl)NC(=O)C2=CN=C(S2)NC3=CC(=NC(=N3)C)N4CCN(CC4)CCO [Dasatinib]; conditions: max 2 µM
Procedure, shortened: as §1

SG3199 = compound: CC1=CN2[C@@H](C1)C=NC3=CC(=C(C=C3C2=O)OC)OCCCCCOC4=C(C=C5C(=C4)N=C[C@@H]6CC(=CN6C5=O)C)OC [SG3199]; conditions: max 0.001 µM
Procedure, shortened: as §1

AZD2811 = compound: CCN(CCO)CCCOc1ccc2c(Nc3cc(CC(=O)Nc4cccc(F)c4)[nH]n3)ncnc2c1 [AZD2811]; conditions: max 1 µM
Procedure, shortened: as §1

SN-38 = compound: CCc1c2c(nc3ccc(O)cc13)-c1cc3c(c(=O)n1C2)COC(=O)[C@]3(O)CC [SN-38]; conditions: max 0.3 µM
Procedure, shortened: as §1

AZD0156 = compound: CN(C)CCCOc1ccc(-c2ccc3ncc4c(c3c2)n(C2CCOCC2)c(=O)n4C)cn1 [AZD0156]; conditions: max 3 µM
Procedure, shortened: as §1

AZD4320 = compound: CN(CC[C@H](CSC1=CC=CC=C1)NC2=C(C=C(C=C2)S(=O)(=O)NC(=O)C3=CC=C(C=C3)N4CCC(CC4)[C@H](C5=CC=CC=C5C6=CC=C(C=C6)Cl)O)S(=O)(=O)C(F)(F)F)CCO [AZD4320]; conditions: max 1 µM
Procedure, shortened: as §1

Alisertib = compound: COc1cc(Nc2ncc3c(n2)-c2ccc(Cl)cc2C(c2c(F)cccc2OC)=NC3)ccc1C(=O)O [Alisertib]; conditions: max 10 µM
Procedure, shortened: as §1

Etoposide = compound: COc1cc([C@@H]2c3cc4c(cc3[C@@H](O[C@@H]3O[C@@H]5CO[C@@H](C)O[C@H]5[C@H](O)[C@H]3O)[C@H]3COC(=O)[C@H]23)OCO4)cc(OC)c1O [Etoposide]; conditions: max 10 µM
Procedure, shortened: as §1

Gefitinib = compound: COc1cc2ncnc(Nc3ccc(F)c(Cl)c3)c2cc1OCCCN1CCOCC1 [Gefitinib]; conditions: max 10 µM
Procedure, shortened: as §1

Prexasertib = compound: COc1cccc(OCCCN)c1-c1cc(Nc2cnc(C#N)cn2)n[nH]1 [Prexasertib]; conditions: max 1 µM
Procedure, shortened: as §1

Doxorubicin = compound: COc1cccc2c1C(=O)c1c(O)c3c(c(O)c1C2=O)C[C@@](O)(C(=O)CO)C[C@@H]3O[C@H]1C[C@H](N)[C@H](O)[C@H](C)O1 [Doxorubicin]; conditions: max 1 µM
Procedure, shortened: as §1

AZD5153 = compound: COc1nnc2ccc(N3CCC(c4ccc(OCCN5CCN(C)C(=O)[C@H]5C)cc4)CC3)nn12 [AZD5153]; conditions: max 1 µM
Procedure, shortened: as §1

Lapatinib = compound: CS(=O)(=O)CCNCc1ccc(-c2ccc3ncnc(Nc4ccc(OCc5cccc(F)c5)c(Cl)c4)c3c2)o1 [Lapatinib]; conditions: max 10 µM
Procedure, shortened: as §1

AZD8186 = compound: C[C@@H](Nc1cc(F)cc(F)c1)c1cc(C(=O)N(C)C)cc2c(=O)cc(N3CCOCC3)oc12 [AZD8186]; conditions: max 10 µM
Procedure, shortened: as §1

Crizotinib = compound: C[C@@H](Oc1cc(-c2cnn(C3CCNCC3)c2)cnc1N)c1c(Cl)ccc(F)c1Cl [Crizotinib]; conditions: max 10 µM
Procedure, shortened: as §1

Savolitinib = compound: C[C@@H](c1ccc2nccn2c1)n1nnc2ncc(-c3cnn(C)c3)nc21 [Savolitinib]; conditions: max 1 µM
Procedure, shortened: as §1

AZD6738 = compound: C[C@@H]1COCCN1C2=NC(=NC(=C2)C3(CC3)[S@](=N)(=O)C)C4=C5C=CNC5=NC=C4 [AZD6738]; conditions: max 10 µM
Procedure, shortened: as §1

AZD5991 = compound: Cc1c2c(nn1C)CSCc1cc(n(C)n1)CSc1cc(c3ccccc3c1)OCCCc1c(C(=O)O)n(C)c3c-2c(Cl)ccc13 [AZD5991]; conditions: max 1 µM
Procedure, shortened: as §1

AZD7648 = compound: Cc1cc2ncnn2cc1Nc1ncc2c(n1)n(C1CCOCC1)c(=O)n2C [AZD7648]; conditions: max 10 µM
Procedure, shortened: as §1

Taselisib = compound: Cc1nc(-c2cn3c(n2)-c2ccc(-c4cnn(C(C)(C)C(N)=O)c4)cc2OCC3)n(C(C)C)n1 [Taselisib]; conditions: max 10 µM
Procedure, shortened: as §1

Selumetinib = compound: Cn1cnc2c(F)c(Nc3ccc(Br)cc3Cl)c(C(=O)NOCCO)cc21 [Selumetinib]; conditions: max 10 µM
Procedure, shortened: as §1

SRA737 = compound: N#Cc1cnc(Nc2cc(NC[C@H]3CNCCO3)c(C(F)(F)F)cn2)cn1 [SRA737]; conditions: max 10 µM
Procedure, shortened: as §1

MK-2206 = compound: NC1(c2ccc(-c3nc4ccn5c(=O)[nH]nc5c4cc3-c3ccccc3)cc2)CCC1 [MK-2206]; conditions: max 10 µM
Procedure, shortened: as §1

Gemcitabine = compound: Nc1ccn([C@@H]2O[C@H](CO)[C@@H](O)C2(F)F)c(=O)n1 [Gemcitabine]; conditions: max 0.3 µM
Procedure, shortened: as §1

[1] = compound: O=C(Nc1ccc2[nH]nc(-c3ccncc3)c2c1)[C@@H]1CCN(CC(=O)N2CCN(c3ccc(-c4ncccn4)cc3)CC2)C1; conditions: max 5 µM
Procedure, shortened: as §1

Olaparib = compound: O=C(c1cc(Cc2n[nH]c(=O)c3ccccc23)ccc1F)N1CCN(C(=O)C2CC2)CC1 [Olaparib]; conditions: max 10 µM
Procedure, shortened: as §1

5-Fluorouracil = compound: O=c1[nH]cc(F)c(=O)[nH]1 [5-Fluorouracil]; conditions: max 20 µM
Procedure, shortened: as §1

Cell Line	IC50, cell viability 72 h (Carboplatin) [nM]	IC50, cell viability 72 h (AZD5363) [nM]	IC50, cell viability 72 h (AZD1775) [nM]	IC50, cell viability 72 h (Trametinib) [nM]	IC50, cell viability 72 h (Paclitaxel) [nM]	IC50, cell viability 72 h (Palbociclib) [nM]	IC50, cell viability 72 h (AZD1390) [nM]	IC50, cell viability 72 h (Venetoclax) [nM]	IC50, cell viability 72 h (Dasatinib) [nM]	IC50, cell viability 72 h (SG3199) [nM]	IC50, cell viability 72 h (AZD2811) [nM]	IC50, cell viability 72 h (SN-38) [nM]	IC50, cell viability 72 h (AZD0156) [nM]	IC50, cell viability 72 h (AZD4320) [nM]	IC50, cell viability 72 h (Alisertib) [nM]	IC50, cell viability 72 h (Etoposide) [nM]	IC50, cell viability 72 h (Gefitinib) [nM]	IC50, cell viability 72 h (Prexasertib) [nM]	IC50, cell viability 72 h (Doxorubicin) [nM]	IC50, cell viability 72 h (AZD5153) [nM]	IC50, cell viability 72 h (Lapatinib) [nM]	IC50, cell viability 72 h (AZD8186) [nM]	IC50, cell viability 72 h (Crizotinib) [nM]	IC50, cell viability 72 h (Savolitinib) [nM]	IC50, cell viability 72 h (AZD6738) [nM]	IC50, cell viability 72 h (AZD5991) [nM]	IC50, cell viability 72 h (AZD7648) [nM]	IC50, cell viability 72 h (Taselisib) [nM]	IC50, cell viability 72 h (Selumetinib) [nM]	IC50, cell viability 72 h (SRA737) [nM]	IC50, cell viability 72 h (MK-2206) [nM]	IC50, cell viability 72 h (Gemcitabine) [nM]	IC50, cell viability 72 h [1] [nM]	IC50, cell viability 72 h (Olaparib) [nM]	IC50, cell viability 72 h (5-Fluorouracil) [nM]
CAL-72 (Osteosarcoma)	> 10000	> 10000	587	> 1000	71.2	> 10000	> 300	> 1000	> 2000	> 1	> 1000	42.3	> 3000	> 1000	5040	6020	> 10000	16.9	> 1000	> 1000	> 10000	> 10000	> 10000	> 1000	2870	> 1000	> 10000	> 10000	> 10000	> 10000	> 10000	128	> 5000	> 10000	> 20000
ESS-1 (Other Solid Carcinomas)	> 10000	5500	151	989	5.06	> 10000	> 300	> 1000	125	> 1	533	2.56	> 3000	> 1000	3890	500	> 10000	4.52	65.3	319	> 10000	4500	4820	> 1000	1770	> 1000	> 10000	1060	> 10000	930	> 10000	30.6	2980	> 10000	> 20000
EW-11 (Ewing's Sarcoma)	> 10000	> 10000	> 3000	> 1000	35.6	> 10000	> 300	> 1000	> 2000	> 1	> 1000	8.46	> 3000	210	> 10000	4160	> 10000	62.2	212	> 1000	> 10000	> 10000	5630	> 1000	5930	423	> 10000	1000	> 10000	> 10000	6380	55.7	> 5000	> 10000	> 20000
